Tests used:
Assay in all cases: area under concentration-response curve (viability) (AUC (a.u.)); higher = less active
Conditions in all cases: 48 h
NCI-H295R = system: NCI-H295R
How it was run: (§1)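 Three adrenocortical carcinoma cell lines were seeded at 500–1,000 cells/well in 5 µL medium in 1,536-well plates. 23 nL of each MIPE 5.0 library compound was added at 11 concentrations. After 48 h (per the protocol name), CellTiter-Glo was added for 15 minutes at room temperature and luminescence was read. Signals were normalised per plate to vehicle and empty-well controls. AC50 and area under the curve came from fitted concentration-response curves, keeping only inhibitory or non-responding curve classes.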

CU-ACC1 = system: CU-ACC1
How it was run: as §1

CU-ACC2 = system: CU-ACC2
How it was run: as §1

SMILES | area under concentration-response curve (NCI-H295R) | area under concentration-response curve (CU-ACC1) | area under concentration-response curve (CU-ACC2)
O=C(Nc1c(Cl)cncc1Cl)c1ccc(OC(F)F)c(OCC2CC2)c1 | 523 | 464 | 556
C[C@@H]1CN(Cc2ccc(F)cc2)[C@@H](C)CN1C(=O)c1cc2c(C(=O)C(=O)N(C)C)cn(C)c2cc1Cl | 552 | 515 | 634
C1CN\2C[C@@H](\N=C2S1)C3=CC=CC=C3 | 575 | 506 | 626
CC(C)N1C(=O)NC(=C/C1=O)\N[C@@H](C)C2=CC=CC=C2 | 497 | 471 | 552
CC(C)(NC(=O)O[C@@H]1CN2CCC1CC2)c1csc(-c2ccc(F)cc2)n1 | 480 | 479 | 477
CC(C)=CCC[C@](C)(O[C@@H]1O[C@H](CO[C@@H]2O[C@H](CO)[C@@H](O)[C@H](O)[C@H]2O)[C@@H](O)[C@H](O)[C@H]1O)[C@H]1CC[C@]2(C)[C@@H]1[C@H](O)C[C@@H]1[C@@]3(C)CC[C@H](O[C@@H]4O[C@H](CO)[C@@H](O)[C@H](O)[C@H]4O[C@@H]4O[C@H](CO)[C@@H](O)[C@H](O)[C@H]4O)C(C)(C)[C@@H]3CC[C@]12C | 591 | 533 | 637
CN1[C@@H]2CCC[C@H]1CC(NC(=O)c1nn(C)c3ccccc13)C2 (some centres undefined) | 490 | 511 | 584
CCCOc1ccc(C(=O)OCCN(CC)CC)cc1N | 481 | 377 | 530
CCCCn1c(=O)n(Cc2ccccc2F)c(=O)c2nc(Cc3ccc(NC(C)=O)cc3)[nH]c21 | 531 | 491 | 543
OC(Cn1cncn1)(Cn1cncn1)c1ccc(F)cc1F | 514 | 466 | 546
C[C@@H](N)[C@H]1CC[C@H](C(=O)Nc2ccncc2)CC1 | 448 | 472 | 487
Cc1cccc(-c2[nH]c(CNc3ccccc3F)nc2-c2ccc3ncnn3c2)n1 | 463 | 483 | 510
CC/1=C(/C(CC(=O)N1)C2=CC=C(C=C2)C(F)(F)F)C(=O)NC3=C(F)C=C4[NH]N=CC4=C3 (centres undefined) | 557 | 477 | 560
COC1=CC=C(C=C1)C/2=C(OC3O[C@@H](C)[C@H](O)[C@@H](O)[C@H]3O)/C(=O)C4=C(O2)C(=C(OC5O[C@H](CO)[C@@H](O)[C@H](O)[C@H]5O)C=C4O)CC=C(C)C (some centres undefined) | 564 | 510 | 624
COc1ccc(CC2c3cc(OC)c(OC)cc3CC[N+]2(C)CCC(=O)OCCCCCOC(=O)CC[N+]2(C)CCc3cc(OC)c(OC)cc3C2Cc2ccc(OC)c(OC)c2)cc1OC (centres undefined) | 474 | 449 | 494
Cc1cn2cc(C(=O)N(C)CCO)cc(N[C@@H]3CCOc4cccc(C)c43)c2n1 | 581 | 534 | 620
CC1(C)CC[C@@]2(CC[C@]3(C)\C(=C/C[C@@H]4[C@@]5(C)C[C@@H](O)[C@H](O)C(C)(C)[C@@H]5CC[C@@]34C)[C@@H]2C1)C(O)=O | 531 | 478 | 574
CC(C)NC(=O)N1CC[C@@H](C1)NC/2=N/C3=C(C=CC(=C3)F)N(CC(F)F)C4=C2C=C(Cl)C=C4 | 580 | 580 | 656
Cc1[nH]c(/C=C2\C(=O)Nc3ccc(F)cc32)c(C)c1C(=O)NC[C@H](O)CN1CCOCC1 | 539 | 525 | 601
CCCC1=NC(=C2[N]1NC(=N\C2=O)/C3=CC(=CC=C3OCC)[S+]([O-])(=O)N4CCN(CC)CC4)C | 518 | 462 | 573
CCCNC(=O)Nc1ccc(Oc2ncnc3cc(OC)c(OC)cc23)cc1Cl | 400 | 332 | 383
CC(C)OC(=O)/C1=C/N(CC(C)(C)C2=C1[NH]C3=CC=CC=C23)C(=O)C4=CC=C(F)C(=C4)F | 529 | 454 | 555

SMILES | area under concentration-response curve (NCI-H295R) | area under concentration-response curve (CU-ACC1) | area under concentration-response curve (CU-ACC2)
Nc1cccc2c1CN([C@H]1CCC(=O)NC1=O)C2=O | 498 | 454 | 544
NC[C@H]1O[C@H](O[C@@H]2[C@H](O)[C@@H](O[C@H]3O[C@H](CO)[C@@H](O)[C@H](N)[C@H]3O)[C@H](N)C[C@@H]2N)[C@H](O)[C@@H](O)[C@@H]1O | 520 | 472 | 583
CCC(CCCC)COC(=O)C(\C#N)=C(\c1ccccc1)c2ccccc2 (centres undefined) | 583 | 540 | 667
CC/1=C/N([C@@H]2C[C@@H](O)[C@H](CO)O2)C(=O)NC1=O | 404 | 410 | 425
C[S+](=O)([O-])c1ccc(C(=O)Nc2ccc(Cl)c(-c3ccccn3)c2)c(Cl)c1 | 591 | 544 | 674
N=C(N)c1ccc2[nH]c(-c3cc(CC(=O)N[C@@H](CC(=O)O)C(=O)O)cc(-c4cc([S+](N)(=O)[O-])ccc4O)c3O)nc2c1 | 562 | 595 | 620
CNC(=O)[C@H](Cc1ccccc1)NC(=O)[C@H](CC(C)C)[C@H](CSc1cccs1)C(=O)NO | 560 | 480 | 596
C[S+]([O-])(=O)C1=CC=C(C=C1)C/2=C(/C(=O)OC2)C3=CC=CC=C3 | 424 | 407 | 467
CC(C)n1cc(-c2ccc3c(c2)N(C)CC3)c2c(N[S+](=O)([O-])c3ccn(C)n3)ccnc21 | 568 | 516 | 638
CC(C(=O)O)c1ccc2c(c1)CC(=O)c1ccccc1S2 (centres undefined) | 497 | 535 | 554
Cn1c(=O)c2c(ncn2C)n(C)c1=O | 498 | 479 | 533
CC(=O)O[C@H]1C[C@@H]2CC[C@@H]3[C@H](CC[C@@]4(C)[C@H]3C[C@H]([N+]3(C)CCCCC3)[C@@H]4OC(C)=O)[C@@]2(C)C[C@@H]1N1CCCCC1.[Br-] | 610 | 562 | 632
Cc1cnc(-c2cc(N3CCN(C(=O)CC[S+](C)(=O)[O-])CC3)ncc2Cl)c(C)c1 | 551 | 536 | 534
CC(=O)OCC(=O)[C@@]1(O)CC[C@H]2[C@@H]3CCC/4=C/C(=O)/C=C\[C@]4(C)[C@H]3[C@@H](O)C[C@]12C | 506 | 460 | 471
CN1CCN(CC1)C\2=C\3/C=C(/C)SC3=N/C4=CC=CC=C4N2 | 555 | 556 | 513
Cc1nc[nH]c1CN1CCN(C(=O)N[C@@H](CC(C)C)C(=O)O)[C@@H](Cc2ccccc2)C1=O | 545 | 576 | 621
CCOC(=O)N1CCN(/[N+]([O-])=N/Oc2ccc([N+](=O)[O-])cc2[N+](=O)[O-])CC1 | 521 | 544 | 644
CN(CCOc1ccc(N[S+](C)(=O)[O-])cc1)CCc1ccc(N[S+](C)(=O)[O-])cc1 | 586 | 541 | 637
CCNC(=O)CCC/C=C\C[C@@H]1[C@@H](/C=C/C(O)CCc2ccccc2)[C@@H](O)C[C@@H]1O (some centres undefined) | 571 | 508 | 646
O=C(O)CCNC(=O)c1ccc(/N=N/c2ccc(O)c(C(=O)O)c2)cc1 | 589 | 519 | 635
CN1CCN(C)C(=O)C1C2=CC=C(N/C3=N/C(=C\N(C)C3=O)C4=C(C)C(=CC=C4)NC(=O)C5=CC6=C(CCCC6)S5)C=C2 (centres undefined) | 580 | 528 | 612
